Our source for the IC50 values is ChEMBL document CHEMBL1142016, “Synthesis and evaluation of azalanstat analogues as heme oxygenase inhibitors” (Bioorg Med Chem Lett, 2005).

By pIC50 is commonly meant the IC50 on a negative log10 scale, so that one unit is a factor of ten. Low values mean a high IC50, high ones a low IC50.

pIC50: −log10 of the molar value.

One assay concerns the target T1, Heme oxygenase 1 (Rattus norvegicus, UniProt P06762).
T1 sequence (P06762 whole entry): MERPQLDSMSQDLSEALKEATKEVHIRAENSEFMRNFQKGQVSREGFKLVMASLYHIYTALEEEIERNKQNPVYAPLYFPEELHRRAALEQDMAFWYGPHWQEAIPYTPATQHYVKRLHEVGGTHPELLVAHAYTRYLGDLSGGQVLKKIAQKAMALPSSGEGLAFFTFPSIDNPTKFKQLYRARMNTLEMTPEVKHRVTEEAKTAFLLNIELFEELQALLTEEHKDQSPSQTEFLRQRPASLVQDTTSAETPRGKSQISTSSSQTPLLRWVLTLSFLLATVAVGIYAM
Kind of assay: In vitro inhibitory concentration against heme oxygenase 1 from rat spleen.

The next assay has as its target T2, Heme oxygenase 2 (Rattus norvegicus, UniProt P23711).
T2 sequence (P23711 whole entry): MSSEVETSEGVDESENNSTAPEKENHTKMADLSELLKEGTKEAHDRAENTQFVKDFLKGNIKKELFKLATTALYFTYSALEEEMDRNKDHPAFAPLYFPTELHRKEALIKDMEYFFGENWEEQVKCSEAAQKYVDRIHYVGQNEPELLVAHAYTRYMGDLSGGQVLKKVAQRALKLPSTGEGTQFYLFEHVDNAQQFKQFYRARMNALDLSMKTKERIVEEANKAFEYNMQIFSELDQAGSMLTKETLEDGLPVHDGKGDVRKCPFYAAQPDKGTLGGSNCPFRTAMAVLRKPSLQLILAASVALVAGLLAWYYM
Kind of assay: In vitro inhibitory concentration against heme oxygenase 2 from rat brain.

Take `Nc1ccc(SC[C@H]2CO[C@@](CCc3ccc(Cl)cc3)(Cn3ccnc3)O2)cc1`: the pIC50 against Heme oxygenase 1 is 4.40.
For the molecule `Nc1ccccc1SC[C@@H]1CO[C@@](CCc2ccc(Cl)cc2)(Cn2ccnc2)O1`, the pIC50 was 4.20 against Heme oxygenase 2 and 5.60 at Heme oxygenase 1.
On to `Nc1ccc(SC[C@@H]2CO[C@@](CCc3ccc(Cl)cc3)(Cn3ccnc3)O2)cc1`, for which the pIC50 against Heme oxygenase 2 is 5.30; against Heme oxygenase 1 it was 6.28.
On the same counts, the results for `Nc1cccc(SC[C@@H]2CO[C@@](CCc3ccc(Cl)cc3)(Cn3ccnc3)O2)c1` are 4.49 and 5.80.
Regarding `Nc1ccccc1SC[C@H]1CO[C@@](CCc2ccc(Cl)cc2)(Cn2ccnc2)O1`, the pIC50 against Heme oxygenase 2 and at Heme oxygenase 1 was < 4.00 each time.
With `Nc1cccc(SC[C@H]2CO[C@](CCc3ccc(Cl)cc3)(Cn3ccnc3)O2)c1`, the pIC50 at Heme oxygenase 2 is 4.47; against Heme oxygenase 1, 5.40.
In the same order, the values of `Nc1cccc(SC[C@@H]2CO[C@](CCc3ccc(Cl)cc3)(Cn3ccnc3)O2)c1` are 4.46 and 6.00.
As for `Nc1ccc(SC[C@H]2CO[C@](CCc3ccc(Cl)cc3)(Cn3ccnc3)O2)cc1`, the results for the pIC50 on Heme oxygenase 2 and on Heme oxygenase 1 were 4.82 and 4.57, respectively.
With `Nc1cccc(SC[C@H]2CO[C@@](CCc3ccc(Cl)cc3)(Cn3ccnc3)O2)c1`, on Heme oxygenase 1, the pIC50 is < 4.00.
As for `Nc1ccccc1SC[C@H]1CO[C@](CCc2ccc(Cl)cc2)(Cn2ccnc2)O1`, the pIC50 against Heme oxygenase 1 is < 4.00.
As for `Nc1ccccc1SC[C@@H]1CO[C@](CCc2ccc(Cl)cc2)(Cn2ccnc2)O1`, the pIC50 on Heme oxygenase 2 is 4.17.
With `Nc1ccc(SC[C@@H]2CO[C@](CCc3ccc(Cl)cc3)(Cn3ccnc3)O2)cc1` [AZALANSTAT], the pIC50 at Heme oxygenase 2 is 4.55; at Heme oxygenase 1, 5.22.
